Target: human APJ receptor (Homo sapiens (Human), UniProt P35414)
Assay: [35S]GTPγS binding assay on membranes from CHO cells stably expressing human APJ receptor
Assay type: biochemical
Settings: read-out: Activity hAPJ SPA EC50 IP
Summary of the method: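 Membranes from CHO cells stably expressing human APJ incubated with ligand, 0.2 nM [35S]GTPγS and WGA SPA beads in HEPES pH 7.5 with 5 mM MgCl2, 200 mM NaCl, 3 μM GDP, 90 min at RT. Nonspecific binding defined with 100 μM GTPγS; EC50 by non-linear regression.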

Sequence of human APJ receptor (P35414 whole entry): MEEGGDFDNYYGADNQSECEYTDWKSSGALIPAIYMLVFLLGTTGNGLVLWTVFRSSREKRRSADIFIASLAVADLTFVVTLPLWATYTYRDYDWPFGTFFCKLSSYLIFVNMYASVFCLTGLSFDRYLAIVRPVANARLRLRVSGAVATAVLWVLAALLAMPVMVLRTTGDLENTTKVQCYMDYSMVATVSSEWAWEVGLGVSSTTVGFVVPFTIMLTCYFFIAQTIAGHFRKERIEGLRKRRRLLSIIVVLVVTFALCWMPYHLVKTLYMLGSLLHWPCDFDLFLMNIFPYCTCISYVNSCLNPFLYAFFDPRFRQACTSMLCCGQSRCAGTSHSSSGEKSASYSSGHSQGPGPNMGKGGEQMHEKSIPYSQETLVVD

SMILES	EC50
COc1cccc(OC)c1-n1c(NS(=O)(=O)[C@@H](C)[C@@H](OC(C)C)c2ncc(Cl)cn2)nnc1[C@H]1CCC(C)(C)O1 (single isomer, unassigned) [Example 414.0, (1S,2S)-1-(5-chloro-2-pyrimidinyl)-N-(4-(2,6-dimethoxyphenyl)-5-((2R)-5,5-dimethyltetrahydro-2-furanyl)-4H-1,2,4-triazol-3-yl)-1-(2-propanyloxy)-2-propanesulfonamide or (1S,2S)-1-(5-chloro-2-pyrimidinyl)-N-(4-(2,6-dimethoxyphenyl)-5-((2S)-5,5-dimethyltetrahydro-2-furanyl)-4H-1,2,4-triazol-3-yl)-1-(2-propanyloxy)-2-propanesulfonamide]	1.2 nM
C[C@H](c1ncc(Cl)cn1)[C@H](C)S(=O)(=O)Nc1nnc([C@@H]2CCOC2)n1[C@H](C)c1ccon1 (single isomer, unassigned) [Example 415.0, (2S,3R)-3-(5-chloro-2-pyrimidinyl)-N-(4-((1R)-1-(1,2-oxazol-3-yl)ethyl)-5-((3S)-tetrahydro-3-furanyl)-4H-1,2,4-triazol-3-yl)-2-butanesulfonamide or (2S,3R)-3-(5-chloro-2-pyrimidinyl)-N-(4-((1S)-1-(1,2-oxazol-3-yl)ethyl)-5-((3S)-tetrahydro-3-furanyl)-4H-1,2,4-triazol-3-yl)-2-butanesulfonamide]	230 nM
C[C@H](c1ncc(Cl)cn1)[C@H](C)S(=O)(=O)Nc1nnc([C@@H]2CCOC2)n1[C@H](C)c1ccon1 (single isomer, unassigned) [Example 416.0, (2S,3R)-3-(5-chloro-2-pyrimidinyl)-N-(4-((1R)-1-(1,2-oxazol-3-yl)ethyl)-5-((3S)-tetrahydro-3-furanyl)-4H-1,2,4-triazol-3-yl)-2-butanesulfonamide or (2S,3R)-3-(5-chloro-2-pyrimidinyl)-N-(4-((1S)-1-(1,2-oxazol-3-yl)ethyl)-5-((3S)-tetrahydro-3-furanyl)-4H-1,2,4-triazol-3-yl)-2-butanesulfonamide]	190 nM
COc1cccc(OC)c1-n1c(NS(=O)(=O)[C@@H](C)[C@@H](OC(C)C)c2ncc(C)cn2)nnc1[C@H]1CCC(=O)N1C (single isomer, unassigned) [Example 417.0, (1S,2S)-N-(4-(2,6-dimethoxyphenyl)-5-((2R)-1-methyl-5-oxo-2-pyrrolidinyl)-4H-1,2,4-triazol-3-yl)-1-(5-methyl-2-pyrimidinyl)-1-(2-propanyloxy)-2-propanesulfonamide or (1S,2S)-N-(4-(2,6-dimethoxyphenyl)-5-((2S)-1-methyl-5-oxo-2-pyrrolidinyl)-4H-1,2,4-triazol-3-yl)-1-(5-methyl-2-pyrimidinyl)-1-(2-propanyloxy)-2-propanesulfonamide]	190 nM
COc1cccc(OC)c1-n1c(NS(=O)(=O)[C@@H](C)[C@@H](OC(C)C)c2ncc(C)cn2)nnc1[C@H]1CCC(=O)N1C (single isomer, unassigned) [Example 418.0, (1S,2S)-N-(4-(2,6-dimethoxyphenyl)-5-((2R)-1-methyl-5-oxo-2-pyrrolidinyl)-4H-1,2,4-triazol-3-yl)-1-(5-methyl-2-pyrimidinyl)-1-(2-propanyloxy)-2-propanesulfonamide or (1S,2S)-N-(4-(2,6-dimethoxyphenyl)-5-((2S)-1-methyl-5-oxo-2-pyrrolidinyl)-4H-1,2,4-triazol-3-yl)-1-(5-methyl-2-pyrimidinyl)-1-(2-propanyloxy)-2-propanesulfonamide]	350 nM
COc1cccc(OC)c1-n1c(NS(=O)(=O)[C@@H](C)[C@H](C)c2ncc(Cl)cn2)nnc1[C@H]1CCC(=O)N1C (single isomer, unassigned) [Example 419.0, (2S,3R)-3-(5-chloro-2-pyrimidinyl)-N-(4-(2,6-dimethoxyphenyl)-5-((2R)-1-methyl-5-oxo-2-pyrrolidinyl)-4H-1,2,4-triazol-3-yl)-2-butanesulfonamide or ((2S,3R)-3-(5-chloro-2-pyrimidinyl)-N-(4-(2,6-dimethoxyphenyl)-5-((2S)-1-methyl-5-oxo-2-pyrrolidinyl)-4H-1,2,4-triazol-3-yl)-2-butanesulfonamide]	3430 nM
COc1cccc(OC)c1-n1c(NS(=O)(=O)CCc2ncc(Cl)cn2)nnc1[C@@H]1COCCO1 (single isomer, unassigned) [Example 424.0, 2-(5-chloro-2-pyrimidinyl)-N-(4-(2,6-dimethoxyphenyl)-5-((2R)-1,4-dioxan-2-yl)-4H-1,2,4-triazol-3-yl)ethanesulfonamide or 2-(5-chloro-2-pyrimidinyl)-N-(4-(2,6-dimethoxyphenyl)-5-((2S)-1,4-dioxan-2-yl)-4H-1,2,4-triazol-3-yl)ethanesulfonamide]	52 nM
COc1cccc(OC)c1-n1c(NS(=O)(=O)CCc2ncc(Cl)cn2)nnc1[C@@H]1COCCO1 (single isomer, unassigned) [Example 425.0, 2-(5-chloro-2-pyrimidinyl)-N-(4-(2,6-dimethoxyphenyl)-5-((2R)-1,4-dioxan-2-yl)-4H-1,2,4-triazol-3-yl)ethanesulfonamide or 2-(5-chloro-2-pyrimidinyl)-N-(4-(2,6-dimethoxyphenyl)-5-((2S)-1,4-dioxan-2-yl)-4H-1,2,4-triazol-3-yl)ethanesulfonamide]	130 nM
COc1cccc(OC)c1-n1c(NS(=O)(=O)[C@@H](C)[C@H](C)c2ncc(Cl)cn2)nnc1[C@H]1CCO1 (single isomer, unassigned) [Example 445.0, (2S,3R)-3-(5-chloropyrimidin-2-yl)-N-(4-(2,6-dimethoxyphenyl)-5-((R)-oxetan-2-yl)-4H-1,2,4-triazol-3-yl)butane-2-sulfonamide or (2S,3R)-3-(5-chloropyrimidin-2-yl)-N-(4-(2,6-dimethoxyphenyl)-5-((S)-oxetan-2-yl)-4H-1,2,4-triazol-3-yl)butane-2-sulfonamide]	30 nM
COc1cccc(OC)c1-n1c(NS(=O)(=O)[C@@H](C)[C@H](C)c2ncc(Cl)cn2)nnc1[C@@H]1CCN(C(=O)OC(C)(C)C)C1 (stereo in doubt) [Example 41.0, tert-butyl (3R)-3-(5-((((1S,2R)-2-(5-chloro-2-pyrimidinyl)-1-methylpropyl)sulfonyl)amino)-4-(2,6-dimethoxyphenyl)-4H-1,2,4-triazol-3-yl)-1-pyrrolidinecarboxylate or tert-butyl (3S)-3-(5-((((1S,2R)-2-(5-chloro-2-pyrimidinyl)-1-methylpropyl)sulfonyl)amino)-4-(2,6-dimethoxyphenyl)-4H-1,2,4-triazol-3-yl)-1-pyrrolidinecarboxylate]	820 nM
COc1cccc(OC)c1-n1c(NS(=O)(=O)[C@@H](C)[C@H](C)c2ncc(Cl)cn2)nnc1[C@H]1CCN(C(=O)OC(C)(C)C)C1 (stereo in doubt) [Example 42.0, tert-butyl (3S)-3-(5-((((1S,2R)-2-(5-chloro-2-pyrimidinyl)-1-methylpropypsulfonyl)amino)-4-(2,6-dimethoxyphenyl)-4H-1,2,4-triazol-3-yl)-1-pyrrolidinecarboxylate or tert-butyl (3R)-3-(5-((((1S,2R)-2-(5-chloro-2-pyrimidinyl)-1-methylpropypsulfonyl)amino)-4-(2,6-dimethoxyphenyl)-4H-1,2,4-triazol-3-yl)-1-pyrrolidinecarboxylate]	210 nM
COc1cccc(OC)c1-n1c(NS(=O)(=O)[C@H](C)Cc2ncc(F)cn2)nnc1[C@H]1CCOC1 [Example 6.0]	400 nM
Cc1cnc([C@@H](C)[C@H](C)S(=O)(=O)Nc2nnc([C@@H]3CCCO3)n2-c2c(F)cccc2F)nc1 [Example 18.0, (2S,3R)-N-(4-(2,6-difluorophenyl)-5-((2S)-tetrahydro-2-furanyl)-4H-1,2,4-triazol-3-yl)-3-(5-methyl-2-pyrimidinyl)-2-butanesulfonamide]	120 nM
Cc1cnc([C@@H](C)[C@H](C)S(=O)(=O)Nc2nnc([C@H]3CCCO3)n2-c2c(F)cccc2F)nc1 [Example 19.0, (2S,3R)-N-(4-(2,6-difluorophenyl)-5-((2R)-tetrahydro-2-furanyl)-4H-1,2,4-triazol-3-yl)-3-(5-methyl-2-pyrimidinyl)-2-butanesulfonamide]	60 nM
Cc1cnc([C@@H](C)[C@H](C)S(=O)(=O)Nc2nnc([C@@H]3CCCO3)n2-c2c(F)cncc2F)nc1 [Example 25.0, (2S,3R)-N-(4-(3,5-difluoro-4-pyridinyl)-5-((2S)-tetrahydro-2-furanyl)-4H-1,2,4-triazol-3-yl)-3-(5-methyl-2-pyrimidinyl)-2-butanesulfonamide]	130 nM
Cc1cnc([C@@H](C)[C@H](C)S(=O)(=O)Nc2nnc([C@H]3CCCO3)n2-c2c(F)cncc2F)nc1 [Example 26.0, (2S,3R)-N-(4-(3,5-difluoro-4-pyridinyl)-5-((2R)-tetrahydro-2-furanyl)-4H-1,2,4-triazol-3-yl)-3-(5-methyl-2-pyrimidinyl)-2-butanesulfonamide]	870 nM
COc1cccc(OC)c1-n1c(NS(=O)(=O)[C@@H](C)[C@H](C)c2ncc(Cl)cn2)nnc1C1COC1 [Example 36.0, (2S,3R)-3-(5-chloro-2-pyrimidinyl)-N-(4-(2,6-dimethoxyphenyl)-5-(3-oxetanyl)-4H-1,2,4-triazol-3-yl)-2-butanesulfonamide]	140 nM
COc1cccc(OC)c1-n1c(NS(=O)(=O)CCc2ccc(F)cc2C#N)nnc1[C@H]1CCC(=O)N1 [Example 43.0, 2-(2-Cyano-4-fluorophenyl)-N-(4-(2,6-dimethoxyphenyl)-5-((2R)-5-oxo-2-pyrrolidinyl)-4H-1,2,4-triazol-3-yl)ethanesulfonamide]	1190 nM
COc1cccc(OC)c1-n1c(NS(=O)(=O)CCc2ccc(F)cc2C#N)nnc1[C@@H]1CCC(=O)N1 [Example 44.0, 2-(2-Cyano-4-fluorophenyl)-N-(4-(2,6-dimethoxyphenyl)-5-((2S)-5-oxo-2-pyrrolidinyl)-4H-1,2,4-triazol-3-yl)ethanesulfonamide]	430 nM

From patent publication US10150760B2, “Compounds for use in preparing heterocyclic triazole agonists of the APJ receptor” (AMGEN INC., priority 2016, dated 2018)
